The text below walks through data of PMC9994683 (PLOS ONE, 2023).

Each structure is given as a SMILES string.

Data set [1] deals with Pseudomonas aeruginosa (ATCC 10145). Description: Well-diffusion assay. Format: cell-based. The note with it: extracts 50 μg/mL, 50 μL per well, within 24 h.
The subject of data set [2] is Listeria monocytogenes (ATCC 35152). Description: Well-diffusion assay. The data set is classed as cell-based. The note with it: extracts 50 μg/mL, 50 μL per well, within 24 h. (Agar diffusion results depend on both activity and mobility in agar.)
Data set [3] deals with Salmonella enterica (ATCC 14028). Description: Well-diffusion assay. The data set is classed as cell-based. The note with it: extracts 50 μg/mL, 50 μL per well, within 24 h. How it is done:
(§1) The bactericidalpotential of 50μg/mL of A. indica L. and M. azedarach L. leaves extracts were evaluated using the disc and well-diffusion assays by the formation of inhibition zone. Then, the broth-microdilution approach was used to estimate the values of minimum inhibitory concentration (MIC).
(§2) The antibacterial actions of extracts were examined against Escherichia coli (ATCC 25922), Salmonella enterica (ATCC 14028), Pseudomonas aeruginosa (ATCC 10145), representing Gram-negative (GN) bacteria; Listeria monocytogenes (ATCC 35152), Staphylococcus aureus (ATCC 43300) and Enterococcus faecalis (ATCC 43845), representing Gram-positive (GP) bacteria. Each bacterial culture stock preserved in -80°C was injected into a tube containing 20 ml of Trypticase soya broth (TSB). Then, all inoculated tubes were incubated for 24 h at 37°C. Dilution of the cultures with Mueller–Hinton Broth (MHB) was performed corresponding to ten folds serial dilution upto 10^-8CFU/ml of the bacterial culture.
2.6.2.2. Well-diffusion method. Using sanitized needle tips, a 6 mm-diameter hole was drilled. Afterward when, a sterilized cotton swab was employed to smear the inoculum standard solution of the examined microbes onto the medium. The specimen was then transferred to each well in intervals of 50 μL. Two reference antibiotic drugs (vancomycin and ciprofloxacin) served as positive controls. […]

Data set [4] has as its system Escherichia coli (ATCC 25922). Description: Disc-diffusion assay. Format: cell-based.
Data set [5] deals with Escherichia coli (ATCC 25922). Description: Well-diffusion assay. The data set is classed as cell-based. The note with it: extracts 50 μg/mL, 50 μL per well, within 24 h.
Data set [6] has as its system Staphylococcus aureus (ATCC 43300). Kind of data set: Well-diffusion assay. The data set is classed as cell-based. The note with it: extracts 50 μg/mL, 50 μL per well, within 24 h.
Data set [7] deals with Salmonella enterica (ATCC 14028). Description: Disc-diffusion assay. The note with it: ATCC14028, extracts 50 μg/mL, vancomycin 30 μg/disc, ciprofloxacin 5 μg/disc, read-out: zone of inhibition (diameter), Disc, S. enterica. Format: cell-based. On the procedure:
as §1, §2
(§3) 2.6.2.1. Disc-diffusion method. The technique was conducted based upon the Clinical and Laboratory Standards Institute (CLSI) (M02-A11). The prepared bacterial inoculum suspension was briefly swabbed onto MHA medium with a sterile cotton swab. Next, sterile discs made of filter paper (6 mm) (Maidstone, UK) were saturated with 50μg/mLof the tested samples. Both Ciprofloxacin (5μg/disc) and Vancomycin (30μg/disc) were used as controls. The saturated discs were lightly pushed on the top surfaces MHA and incubated with bacteria overnight at 37°C. A produced zone of inhibition (ZOI) was measured and given in millimeters (mm).

In data set [8] the test system is Listeria monocytogenes (ATCC 35152). Kind of data set: Disc-diffusion assay. The data set is classed as cell-based. The note with it: ATCC35152, extracts 50 μg/mL, vancomycin 30 μg/disc, ciprofloxacin 5 μg/disc, read-out: zone of inhibition (diameter), Disc, L. mono. On the procedure:
as §1, §2, §3

For data set [9], the system named is Enterococcus faecalis (ATCC 43845). Description: Well-diffusion assay. The note with it: extracts 50 μg/mL, 50 μL per well, within 24 h. Format: cell-based.
Data set [10] relates to Staphylococcus aureus (ATCC 43300). Description: Disc-diffusion assay. The data set is classed as cell-based.
Data set [11] relates to Enterococcus faecalis (ATCC 43845). Kind of data set: Disc-diffusion assay. Format: cell-based.
In data set [12] the test system is Pseudomonas aeruginosa (ATCC 10145). Kind of data set: Disc-diffusion assay. Format: cell-based.
For data set [13], the system named is hCoV-19/Egypt/NRC-3/2020 SARS-CoV-2 virus. Kind of data set: Anti-SARS-CoV-2 activity (IC50), crystal violet assay in Vero-E6 cells. The note with it: SARS-CoV-2 in Vero E6 cells, reference drug control. The data set is classed as cell-based.
The subject of a further data set is Vero E6 cells. Description: MTT cytotoxicity assay (CC50) in Vero E6 cells. Format: cell-based, African green monkey. The note with it: reference drug control.

Usually zone of inhibition stands for the size of the clear area around the sample on an inoculated plate. For `O=C(O)c1cn(C2CC2)c2cc(N3CCNCC3)c(F)cc2c1=O` [Cipro., ciprofloxacin], the “zone of inhibition (diameter), Well, P. aeruginosa” value in [1] is reported as 11 ±0.31 mm. Also, the “zone of inhibition (diameter), Well, L. mono.” value in data set [2] was 8 ±0.18 mm. In addition, the “zone of inhibition (diameter), Well, S. enterica” value in data set [3] is reported as 12 ±0.31 mm. Also, the zone of inhibition at 5 µg/disc in [4] (ATCC25922, extracts 50 μg/mL, vancomycin 30 μg/disc, ciprofloxacin 5 μg/disc, read-out: zone of inhibition (diameter), Disc, E. coli) was determined as 14 ± 0.28 mm; in data set [7], 11 ± 0.15 mm; in data set [8], 6 ± 0.25 mm; in data set [10] (ATCC43300, extracts 50 μg/mL, vancomycin 30 μg/disc, ciprofloxacin 5 μg/disc, read-out: zone of inhibition (diameter), Disc, S. aureus), 8 ± 0.24 mm; in data set [11] (ATCC43845, extracts 50 μg/mL, vancomycin 30 μg/disc, ciprofloxacin 5 μg/disc, read-out: zone of inhibition (diameter), Disc, E. faecalis) it was 9 ± 0.19 mm; in data set [12] (ATCC10145, extracts 50 μg/mL, vancomycin 30 μg/disc, ciprofloxacin 5 μg/disc, read-out: zone of inhibition (diameter), Disc, P. aeruginosa) it was 9 ± 0.15 mm. Also, in [5], the “zone of inhibition (diameter), Well, E. coli” value turned out to be 16 ±0.19 mm. For the same compound, in data set [6], the “zone of inhibition (diameter), Well, S. aureus” value amounted to 10 ±0.29 mm. Further, the “zone of inhibition (diameter), Well, E. faecalis” value in data set [9] came to 10 ±0.15 mm.

As for `CN[C@H](CC(C)C)C(=O)N[C@H]1C(=O)N[C@@H](CC(N)=O)C(=O)N[C@H]2C(=O)N[C@H]3C(=O)N[C@H](C(=O)N[C@H](C(=O)O)c4cc(O)cc(O)c4-c4cc3ccc4O)[C@H](O)c3ccc(c(Cl)c3)Oc3cc2cc(c3O[C@@H]2O[C@H](CO)[C@@H](O)[C@H](O)[C@H]2O[C@H]2C[C@](C)(N)[C@H](O)[C@H](C)O2)Oc2ccc(cc2Cl)[C@H]1O` [Vanco., vancomycin], the “zone of inhibition (diameter), Well, P. aeruginosa” value in data set [1] is on record as 8 ±0.24 mm. Besides, in [2], the “zone of inhibition (diameter), Well, L. mono.” value is 11 ±0.11 mm. In addition, the “zone of inhibition (diameter), Well, S. enterica” value in data set [3] was 9 ±0.24 mm. Besides, the zone of inhibition at 30 µg/disc came to 9 ± 0.11 mm in data set [4] (ATCC25922, read-out: zone of inhibition (diameter), Disc, E. coli); 7 ± 0.21 mm in data set [7]; 9 ± 0.43 mm in [8]; 12 ± 0.22 mm in data set [10] (ATCC43300, read-out: zone of inhibition (diameter), Disc, S. aureus); 11 ± 0.31 mm in data set [11] (ATCC43845, read-out: zone of inhibition (diameter), Disc, E. faecalis); 6 ± 0.21 mm in [12] (ATCC10145, read-out: zone of inhibition (diameter), Disc, P. aeruginosa). Further, the “zone of inhibition (diameter), Well, E. coli” value in data set [5] came out at 10 ±0.23 mm. For the same compound, in data set [6], the “zone of inhibition (diameter), Well, S. aureus” value is reported as 14 ±0.27 mm. In [9], the “zone of inhibition (diameter), Well, E. faecalis” value turned out to be 13 ±0.23 mm.

The term IC50 denotes the concentration needed to halve the response being measured. A higher IC50 goes with lower potency. For orientation: CC50 means the concentration giving 50% cytotoxicity. Low values mean harm at low concentration, high ones better tolerance by the cells. For the compound `CCC(CC)COC(=O)[C@H](C)N[P@](=O)(OC[C@H]1O[C@@](C#N)(c2ccc3c(N)ncnn23)[C@H](O)[C@@H]1O)Oc1ccccc1` [remedesivir], half-maximal inhibition in data set [13] (IC50) required 6.72 µM. For the same compound, in the data set on Vero E6 cells, the CC50 stood at 473 µM.
